The structures appear in SMILES notation. Where two headings read alike, the source gives them in different places.

Common to all, as to assay type: in vivo
For experiment [1], the system named is stress-induced ulcers. Kind of experiment: inhibition of stress-induced ulcers in rats (restraint in a water bath at 25° for 40 minutes). The conditions noted are these: 50 mg/kg i.v.
For experiment [2], the system named is bronchoconstrictive effect of compound 48/80 (histamine releasing drug). Kind of experiment: antagonism of the bronchoconstrictive effect of compound 48/80 in rats. As to conditions: 3 mg/kg i.v.
The subject of experiment [3] is passive cutaneous anaphylaxis (PCA). Kind of experiment: passive cutaneous anaphylaxis (PCA) test in rats, oral. The conditions noted are these: Rattus norvegicus, 50 mg/kg p.o., read-out: % Inhibition In Comparison With Controls. The source says:
They can be therefore used in prevention and treatment of bronchial asthma, allergic rhinitis, hay fever, urticaria and dermatosis.

For experiment [4], the system named is bronchoconstrictive effect of 5-HT. Description: antagonism of the bronchoconstrictive effect of 5-HT in rats. The conditions noted are these: 3 mg/kg i.v.
Experiment [5] has as its system airway resistance and pulmonary compliance. Kind of experiment: airway resistance and pulmonary compliance in rats (technique of Palecek et al.). The conditions noted are these: dosage as low as 3 mg/kg i.v. The text has this:
In addition to anti-allergic activity, the compounds of this invention are effective in decreasing the airway resistance and in increasing pulmonary compliance, and can be therefore used for the treatment of respiratory insufficiency, such as, for example, acute pulmonary insufficiency, as shown by the results obtained in rats using the technique described by Palecek F., Palecekova M., and Aviado D. M. (Arch. Environ. Health, 1967, 15:332-342).

On to `CC(C)Oc1ccccc1-c1cc(=O)c2cc(C(=O)[O-])ccc2o1.[Na+]` [6-carboxy-2'-isopropoxy-flavone sodium salt], for which, in experiment [1], the “inhibition of the stress-induced ulcers” value stood at 45%.

On to `CC(C)Oc1ccccc1-c1cc(=O)c2cc(C(=O)O)ccc2o1` [6-carboxy-2'-isopropoxy-flavone], for which the “antagonizing the bronchoconstrictive effect of compound 48/80” value in experiment [2] amounted to 50%. In addition, the inhibition in vivo at 50 mg/kg in experiment [3] (0.25 h, 15 min. pretreatment) came out at 82.9%; in experiment [3] (0.5 h, 30 min. pretreatment), 39.5%; in experiment [3] (1 h, 60 min. pretreatment), 27.6%; in experiment [3] (2 h, 120 min. pretreatment), 24.4%. Besides, the “antagonizing the bronchoconstrictive effect of 5-HT” value in experiment [4] is listed as 50%. The “effect on airway resistance” value in experiment [5] is listed as “lower the airway resistance”. In experiment [5], the “effect on pulmonary compliance” value is listed as “increase pulmonary compliance”.

Consider `O=C(O)c1ccc2oc(-c3cnccn3)cc(=O)c2c1` [6-carboxy-2-(2'-pyrazinyl)-chromone], for which the inhibition in vivo at 50 mg/kg was found to be 87% in experiment [3] (0.25 h, 15 min. pretreatment); 47.3% in experiment [3] (0.5 h, 30 min. pretreatment); 31.9% in experiment [3] (1 h, 60 min. pretreatment); 26.3% in experiment [3] (2 h, 120 min. pretreatment).

Regarding `O=C(O)c1ccc2oc(C=Cc3ccccc3)cc(=O)c2c1` [6-carboxy-2-(β-phenyl-vinyl)-chromone], the inhibition in vivo at 50 mg/kg in experiment [3] (0.25 h, 15 min. pretreatment) came out at 69.9%; in experiment [3] (0.5 h, 30 min. pretreatment), 45.8%; in experiment [3] (1 h, 60 min. pretreatment), 19.6%; in experiment [3] (2 h, 120 min. pretreatment), 16.6%.

`O=C(O)c1ccc2oc(-c3cccc(Cl)c3)cc(=O)c2c1` [6-carboxy-3'-chloro-flavone]: the inhibition in vivo at 50 mg/kg in experiment [3] (0.25 h, 15 min. pretreatment) was found to be 31%; in experiment [3] (0.5 h, 30 min. pretreatment) it was 22.3%; in experiment [3] (1 h, 60 min. pretreatment), 5.9%; in experiment [3] (2 h, 120 min. pretreatment), 2.1%.

On to `O=C(O)c1ccc2oc(-c3ccc(O)cc3)cc(=O)c2c1` [6-carboxy-4'-hydroxy-flavone], for which the inhibition in vivo at 50 mg/kg in experiment [3] (0.25 h, 15 min. pretreatment) came to 9.2%; in experiment [3] (0.5 h, 30 min. pretreatment), 4%; in experiment [3] (1 h, 60 min. pretreatment) it was 3.7%; in experiment [3] (2 h, 120 min. pretreatment), 3.9%.

Take `O=C(O)c1ccc2oc(-c3ccccc3)cc(=O)c2c1` [6-carboxy-flavone]: the inhibition in vivo at 50 mg/kg is 32.1% in experiment [3] (0.25 h, 15 min. pretreatment); 23.5% in experiment [3] (0.5 h, 30 min. pretreatment); 6.8% in experiment [3] (1 h, 60 min. pretreatment); 3.4% in experiment [3] (2 h, 120 min. pretreatment).

Consider `O=C(O)c1ccc2oc3ccc(OCCO)cc3c(=O)c2c1` [AH 7725, 2-carboxy-7-hydroxyethoxy-xanthone], for which the inhibition in vivo at 50 mg/kg in experiment [3] (0.25 h, 15 min. pretreatment) stood at 42.6%; in experiment [3] (0.5 h, 30 min. pretreatment) it was 14.4%; in experiment [3] (1 h, 60 min. pretreatment), 13.3%; in experiment [3] (2 h, 120 min. pretreatment), 3.8%.

As for `O=C(O)c1cc(=O)c2c(OCC(O)COc3cccc4oc(C(=O)O)cc(=O)c34)cccc2o1` [DSCG, disodium cromoglycate], the inhibition in vivo at 50 mg/kg in experiment [3] (0.25 h, 15 min. pretreatment) was 6%; in experiment [3] (0.5 h, 30 min. pretreatment) it was 5.5%; in experiment [3] (1 h, 60 min. pretreatment), 3.2%; in experiment [3] (2 h, 120 min. pretreatment), 2.5%.

Values taken from patent US4083953A, “Pharmaceutical composition containing 5:6-benzo-alpha-pyrone derivatives and method of use thereof” (Carlo Erba, S.p.A., priority 1973, dated 1978).
